From ChEMBL document CHEMBL6115010, “Targeting glioma with heteroaromatic alkaloids: A review of potential therapeutics” (Bioorg Med Chem, 2025)
Converted amounts (≈) assume the structure as drawn.

Columns and labels:
[1] = Cytotoxicity against human GSC-3 cells assessed as reduction in cell viability incubated for 72 hrs by MTS assay; format: functional, cell-based; conditions: GSC-3, 72 h
[2] = system: Hs68; assay: Growth inhibition of human Hs68 cells measured after 72 hrs by MTT assay; format: functional
[3] = system: U-87 MG; assay: Growth inhibition of human U-87 MG cells measured after 72 hrs by MTT assay; format: functional, U-87MG ATCC
[4] = Growth inhibition of human U373 MG cells measured after 72 hrs by MTT assay; format: functional, U-373MG ATCC
[5] = system: U-251; assay: Cytotoxicity against human U-251MG cells assessed as reduction in cell viability incubated for 48 hrs by MTT assay; format: functional, cell-based; conditions: U-251, 48 h
[6] = Cytotoxicity against human SHG-44 cells assessed as reduction in cell viability incubated for 48 hrs by MTT assay; format: functional, cell-based; conditions: SHG-44, 48 h
[7] = system: CCF-STTG1; assay: Cytotoxicity against human CCF-STTG1 cells assessed as reduction in cell viability incubated for 48 hrs by MTT assay; format: functional, cell-based; conditions: CCF-STTG1, 48 h
[8] = Cytotoxicity against human CHG-5 cells assessed as reduction in cell viability incubated for 48 hrs by MTT assay; format: functional, cell-based; conditions: CHG-5, 48 h
[9] = system: SF-268; assay: Cytotoxicity against human SF-268 cells assessed as reduction in cell viability incubated for 72 hrs by SRB assay; format: functional, cell-based; conditions: SF-268, 72 h
[10] = system: SF-295; assay: Cytotoxicity against human SF-295 cells assessed as reduction in cell growth incubated for 96 hrs by MTT assay; format: functional, cell-based; conditions: SF-295, 96 h
[11] = system: SH-SY5Y; assay: Cytotoxicity against human SH-SY5Y cells; format: functional, cell-based
[12] = Cytotoxicity against human U-343MG cells assessed as reduction in cell growth incubated for 48 hrs by MTT assay; format: functional, cell-based
[13] = Cytotoxicity against human CHG-5 cells assessed as reduction in cell growth incubated for 48 hrs by MTT assay; format: functional, cell-based; conditions: CHG-5, 48 h
[14] = system: SH-SY5Y; assay: Cytotoxicity against human SH-SY5Y cells assessed as reduction in cell growth incubated for 48 hrs by MTT assay; format: functional, cell-based
[15] = system: U-251; assay: Cytotoxicity against human U-251MG cells assessed as reduction in cell growth incubated for 48 hrs by MTT assay; format: functional, cell-based; conditions: U-251, 48 h
[16] = Cytotoxicity against human GL15 cells assessed as reduction in cell growth incubated for 48 hrs by MTT assay; format: functional, cell-based; conditions: GL15, 48 h
[17] = Cytotoxicity against human SHG-44 cells assessed as reduction in cell growth incubated for 48 hrs by MTT assay; format: functional, cell-based; conditions: SHG-44, 48 h
[18] = system: U-87 MG; assay: Antiproliferative activity against human U-87 MG cells assessed as reduction in cell viability at 100 uM incubated for 72 hrs by Prestoblue-reagent based assay relative to control; format: functional, U-87MG ATCC
[19] = Cytotoxicity against human SHG-44 cells assessed as reduction in cell growth incubated for 24 hrs by MTT assay; format: functional, cell-based; conditions: SHG-44, 24 h
[20] = system: CCF-STTG1; assay: Cytotoxicity against human CCF-STTG1 cells assessed as reduction in cell growth incubated for 24 hrs by MTT assay; format: functional, cell-based; conditions: CCF-STTG1, 24 h
[21] = Cytotoxicity against human CHG-5 cells assessed as reduction in cell growth incubated for 24 hrs by MTT assay; format: functional, cell-based; conditions: CHG-5, 24 h
[22] = Cytotoxicity against human SHG-44 cells assessed as reduction in cell viability incubated for 24 hrs by MTT assay; format: functional, cell-based; conditions: SHG-44, 24 h
[23] = system: CCF-STTG1; assay: Cytotoxicity against human CCF-STTG1 cells assessed as reduction in cell viability incubated for 24 hrs by MTT assay; format: functional, cell-based; conditions: CCF-STTG1, 24 h
[24] = system: U-251; assay: Cytotoxicity against human U-251MG cells assessed as reduction in cell viability incubated for 24 hrs by MTT assay; format: functional, cell-based; conditions: U-251, 24 h
[25] = Cytotoxicity against human CHG-5 cells assessed as reduction in cell viability incubated for 24 hrs by MTT assay; format: functional, cell-based; conditions: CHG-5, 24 h
[26] = Cytotoxicity against human U373 MG cells assessed as reduction in cell growth incubated for 24 hrs by MTT colorimetric assay; format: functional, cell-based, U-373MG ATCC
[27] = Toxicity in ip dosed B6D2F1 mouse assessed as maximum tolerated dose measured after 28 days; format: organism-based; conditions: in vivo, time 28 day
[28] = system: SW1088; assay: Cytotoxicity against human SW1088 cells assessed as reduction in cell growth incubated for 24 hrs by MTT colorimetric assay; format: functional, cell-based; conditions: SW1088, 24 h
[29] = system: GAMG; assay: Antiproliferative activity against human GAMG cells assessed as reduction in cell viability incubated for 48 hrs by MTS reagent based assay; format: functional
[30] = Cytotoxicity against rat ASK cells assessed as reduction in cell growth by SRB assay; format: functional; conditions: read-out: ED50 (the source's name)
[31] = system: H4; assay: Antiproliferative activity against human H4 cells assessed as reduction in cell viability incubated for 72 hrs by Prestoblue-reagent based assay; format: functional; conditions: H4, 72 h

COc1cc2c(c(Oc3ccc(CO)cc3)c1OC)C[C@H]1c3c(cc(OC)c(OC)c3-2)CCN1C
IC50 [1]: 15.2 µg/mL (≈ 31.9 µM)

CO[C@@H]1C=C[C@@]23c4cc5c(cc4C(C)O[C@H]2CN(C)[C@H]3C1)OCO5 (some centres not stated)
GI50 [2]: 51 µM | GI50 [3]: 28 µM | GI50 [4]: 1 µM

CC(=O)O[C@H]1C=C[C@]23c4cc5c(cc4[C@H](OC(C)=O)N(C[C@H]2O)[C@@H]3C1)OCO5
IC50 [5]: 17.4 µM | IC50 [6]: 27.1 µM | IC50 [7]: 27.1 µM | IC50 [8]: 30.1 µM

C/C=C(\C)[C@H](O)[C@H](C)/C=C(C)/C=C(\C)C/C(C)=C/Cc1nc(OC)c(OC)c(OC)c1C
IC50 [9]: 10 µM

COc1cc2c(cc1OC)[C@H](O)[C@@H]1c3c(cc4c(c3-2)OCO4)CC[N@@+]1(C)[O-]
IC50 [10]: 1.62 µg/mL (≈ 4.36 µM)

COc1cc2c(cc1O)[C@H](OC(C)=O)N1C[C@@H](O)[C@]23C=C[C@H](OC)C[C@@H]13
IC50 [5]: 17.4 µM | IC50 [6]: 27.1 µM | IC50 [7]: 29.4 µM | IC50 [8]: 29.4 µM

N#Cc1cnc2cccc(O)c2c1O
IC50 [11]: 62.6 µM

COc1cc2c(c(Oc3ccc(C=O)cc3)c1OC)-c1c(OC)c(OC)cc3ccnc(c13)C2=O
IC50 [1]: 15.5 µg/mL (≈ 32.8 µM)

CN1C(=O)C(=O)NC[C@@H]1CNc1ccc(C(=O)O)cc1
IC50 [11]: 54.3 µM

CN[C@H]1C[C@H](OC)C=C[C@@]12C(=O)N(CCCC(=O)O)Cc1cc3c(cc12)OCO3
IC50 [12]: 12.2 µM | IC50 [13]: 12.2 µM | IC50 [14]: 13.7 µM | IC50 [15]: 11.3 µM | IC50 [16]: 11.4 µM | IC50 [17]: 10.8 µM

COc1ccc2c3c([nH]c2c1)[C@@H](C)NCC3
inhibition at 100 µM [18]: 38%

COc1ccc2c(c1OC)-c1c(OC)c(O)cc3c1[C@H](C2)[N@+](C)([O-])CC3
IC50 [19]: 83.7 µM | IC50 [20]: 81.8 µM | IC50 [21]: 83.7 µM

CO[C@H]1C=C[C@]23c4cc5c(cc4[C@H](OC(C)=O)N(C[C@H]2O)[C@@H]3C1)OCO5
IC50 [5]: 15.8 µM | IC50 [6]: 28.3 µM | IC50 [7]: 27.1 µM | IC50 [8]: 30 µM

CC(=O)O[C@@H]1C2C3C[C@H]4C5=Nc6ccccc6[C@]51C[C@@H]2[N+]4([O-])[C@@H](C)[C@@H]3C(=O)O (some centres not stated)
IC50 [22]: 9.2 µM | IC50 [23]: 11.4 µM | IC50 [24]: 9.7 µM | IC50 [25]: 12.1 µM

CO[C@@H]1C=C[C@@]23c4cc5c(cc4CN(CCc4ccccc4)[C@@H]2CN(C)[C@H]3C1)OCO5
IC50 [12]: 14.6 µM | IC50 [13]: 17.7 µM | IC50 [14]: 15.8 µM | IC50 [15]: 18.4 µM | IC50 [16]: 18.9 µM | IC50 [17]: 15.4 µM

[O-][N+]12CCc3cc(O)c(O)c(c31)-c1cc3c(cc1C2)OCO3 (single isomer, unassigned; (+))
IC50 [5]: 93.7 µM

O=C1c2cccnc2-c2nccc3c2c1nc1ccccc13 [ASCIDIDEMIN]
IC50 [26]: 0.5 µM | MTD at 672 h [27]: 40 mg/kg | IC50 [28]: 0.6 µM

O=P1(N(CCCl)CCCl)NCCCO1 (configuration not stated) [CYCLOPHOSPHAMIDE ANHYDROUS]
IC50 [29]: 50.9 µM

COc1cc2c(cc1OC)-c1c3c(cc4ccnc(c14)C2=O)OCO3 [DICENTRINONE]
EC50 [30]: 10.2 µg/mL (≈ 30.4 µM)

COc1ccc2c3c([nH]c2c1)C(C)=NCC3 [HARMALINE]
inhibition at 100 µM [18]: 14% | IC50 [31]: 19.6 µM

CC1=NCCc2c1[nH]c1cc(O)ccc21 [HARMALOL]
inhibition at 100 µM [18]: 37% | IC50 [31]: 23.7 µM

Cc1cc2nc3[nH]c(=O)[nH]c(=O)c3nc2cc1C [LUMICHROME]
IC50 [11]: 75.2 µM

c1ccc2c(c1)[nH]c1cnccc12 [NORHARMANE]
IC50 [31]: 49 µM

COc1cc(OC)c2c(c1)C(=O)c1nccc3cc4c(c-2c13)OCO4 [OXODISCOGUATTINE]
EC50 [30]: 2.11 µg/mL (≈ 6.29 µM)

C/C=C(\C)[C@H](O)[C@H](C)/C=C(C)/C=C/C/C(C)=C/Cc1nc(OC)c(OC)c(O)c1C [PIERICIDIN A]
IC50 [9]: 68.1 µM

COc1c(OC)c(OC)c2c3c(cc4ccccc42)NC(=O)c13 [PIPEROLACTAM C]
EC50 [30]: 12.8 µg/mL (≈ 41.3 µM)

CC[C@]1(O)C[C@H]2CN(CCc3c([nH]c4ccccc34)[C@@](C(=O)OC)(c3cc4c(cc3OC)N(C=O)[C@H]3[C@@](O)(C(=O)OC)[C@H](OC(C)=O)[C@]5(CC)C=CCN6CC[C@]43[C@@H]65)C2)C1 [VINCRISTINE]
IC50 [29]: 30.4 µM
